PubChem BioAssay AID1259407 (Chemical Carcinogenesis Research Information System (CCRIS), 2018)
Active and inactive are the calls of the source. No rule for the calls is given here.

System: CCRIS mutagenicity, Ames/micronucleus/aberration tests
Experiment: CCRIS mutagenicity studies

COc1cccc2c1C(=O)c1c(O)c3c(c(O)c1C2=O)C[C@@](O)(C(=O)CO)C[C@@H]3O[C@H]1C[C@H](N)[C@H](O)[C@H](C)O1
mutagenic call (End Point: IN VITRO CHROMOSOMAL ABERRATIONS, Test System: CHO-WBL CELLS, Metabolic Activation: NONE): active; positive
mutagenic call (End Point: IN VITRO CHROMOSOMAL ABERRATIONS, Test System: HUMAN (MALE) PERIPHERAL LYMPHOCYTES, Metabolic Activation: NONE, Method: FISH (METAPHASE)): active; positive (structural changes)
mutagenic call (End Point: IN VIVO CHROMOSOMAL ABERRATIONS, Test System: BONE MARROW CELLS, Species: RAT, Strain/Sex: WISTAR/MALE, FEMALE, Route: IP): active; positive (structural changes; abnormal metaphase)
mutagenic call (End Point: IN VIVO CHROMOSOMAL ABERRATIONS, Test System: BONE MARROW CELLS, Species: RAT, Strain/Sex: WISTAR, Route: IP): active; positive
mutagenic call (End Point: IN VIVO CHROMOSOMAL ABERRATIONS, Test System: BONE MARROW, Species: RAT, Strain/Sex: WISTAR/MALE, FEMALE, Route: INTRAPERITONEAL): active; positive (structural changes)
mutagenic call (End Point: IN VIVO CHROMOSOMAL ABERRATIONS, Test System: BONE MARROW, Species: RAT, Strain/Sex: WISTAR, Route: INTRAPERITONEAL (TEST MATERIAL SOLVENT: WATER)): active; positive (structural changes)
mutagenic call (End Point: In vitro chromosomal aberrations, Test System: Chinese hamster ovary (CHO) cells, Metabolic Activation: None): active; positive (structural changes)
mutagenic call (End Point: In vitro chromosomal aberrations, Test System: Human (female) lymphocytes): active; positive. fucus vesiculosus extract (84696-13-9) at 0.25-1.0 mg/ml was antimutag
mutagenic call (End Point: In vitro chromosomal aberrations, Test System: Human lymphocytes, Metabolic Activation: None): active; positive (structural changes). significantly reduced by selenomethionine treatme
mutagenic call (End Point: In vitro micronucleus, Test System: Human peripheral blood lymphocytes, Metabolic Activation: None): active; positive
mutagenic call (End Point: In vivo chromosomal aberrations, Test System: Bone marrow cells, Species: Rat, Strain/Sex: Wistar/Male and female, Route: Intraperitoneal): active; positive (structural changes); administration of vitamin c or vitamin e decrease
mutagenic call (End Point: In vivo chromosomal aberrations, Test System: Bone marrow cells, Species: Rat, Strain/Sex: Wistar/Male and female, Route: Oral): active; positive (structural changes)
mutagenic call (End Point: In vivo chromosomal aberrations, Test System: Bone marrow, Species: Rat, Strain/Sex: Wistar/Male and female, Route: Intraperitoneal (Test material solvent: either distilled water or DMSO solution)): active; positive (structural changes). prior treatment with propolis extract reduced the
mutagenic call (End Point: In vivo micronucleus, Test System: Bone marrow erythrocytes, Species: Mouse, Strain/Sex: Swiss albino/Male, Route: Oral): inactive; negative
mutagenic call (Test System: AMES SALMONELLA TYPHIMURIUM, Strain/Indicator: GW257, Metabolic Activation: NONE, Method: STANDARD PLATE): active; positive
mutagenic call (Test System: AMES SALMONELLA TYPHIMURIUM, Strain/Indicator: TA97, Metabolic Activation: NONE, Method: STANDARD PLATE): inactive; negative
mutagenic call (Test System: AMES SALMONELLA TYPHIMURIUM, Strain/Indicator: TA97, Metabolic Activation: RAT, LIVER, S-9, PHENOBARBITAL AND ALPHA-NAPHTHOFLAVONE, Method: STANDARD PLATE): inactive; negative
mutagenic call (Test System: AMES SALMONELLA TYPHIMURIUM, Strain/Indicator: TA97A, Metabolic Activation: NONE, Method: STANDARD PLATE): inactive; negative
mutagenic call (Test System: AMES SALMONELLA TYPHIMURIUM, Strain/Indicator: TA97A, Metabolic Activation: RAT, LIVER, S-9, AROCLOR 1254, Method: STANDARD PLATE): inactive; negative
mutagenic call (Test System: AMES SALMONELLA TYPHIMURIUM, Strain/Indicator: TA98, Metabolic Activation: NONE, Method: PREINCUBATION): active; positive
mutagenic call (Test System: AMES SALMONELLA TYPHIMURIUM, Strain/Indicator: TA98, Metabolic Activation: RAT, LIVER, S-9, AROCLOR 1254, Method: STANDARD PLATE): active; positive
mutagenic call (Test System: AMES SALMONELLA TYPHIMURIUM, Strain/Indicator: TA98, Metabolic Activation: RAT, LIVER, S-9, KC500 OR PHENOBARBITAL, Method: LIQUID SUSPENSION): active; positive
mutagenic call (Test System: AMES SALMONELLA TYPHIMURIUM, Strain/Indicator: TA98, Metabolic Activation: RAT, LIVER, S-9, PHENOBARBITAL AND ALPHA-NAPHTHOFLAVONE, Method: STANDARD PLATE): active; positive
mutagenic call (Test System: AMES SALMONELLA TYPHIMURIUM, Strain/Indicator: TA98, Metabolic Activation: S-9, Method: PREINCUBATION): active; positive
mutagenic call (Test System: AMES SALMONELLA TYPHIMURIUM, Strain/Indicator: TA100, Metabolic Activation: NONE, Method: PREINCUBATION): inactive; negative
mutagenic call (Test System: AMES SALMONELLA TYPHIMURIUM, Strain/Indicator: TA100, Metabolic Activation: RAT, LIVER, S-9, AROCLOR 1254, Method: STANDARD PLATE): inactive; negative
mutagenic call (Test System: AMES SALMONELLA TYPHIMURIUM, Strain/Indicator: TA100, Metabolic Activation: RAT, LIVER, S-9, PHENOBARBITAL AND ALPHA-NAPHTHOFLAVONE, Method: STANDARD PLATE): active; positive
mutagenic call (Test System: AMES SALMONELLA TYPHIMURIUM, Strain/Indicator: TA100, Metabolic Activation: S-9, Method: PREINCUBATION): active; positive
mutagenic call (Test System: AMES SALMONELLA TYPHIMURIUM, Strain/Indicator: TA102, Metabolic Activation: NONE, Method: STANDARD PLATE): active; positive
mutagenic call (Test System: AMES SALMONELLA TYPHIMURIUM, Strain/Indicator: TA102, Metabolic Activation: RAT, LIVER, S-9, AROCLOR 1254, Method: STANDARD PLATE): active; positive
mutagenic call (Test System: AMES SALMONELLA TYPHIMURIUM, Strain/Indicator: TA1535, Metabolic Activation: NONE, Method: STANDARD PLATE): inactive; negative
mutagenic call (Test System: AMES SALMONELLA TYPHIMURIUM, Strain/Indicator: TA1535, Metabolic Activation: RAT, LIVER, S-9, PHENOBARBITAL AND ALPHA-NAPHTHOFLAVONE, Method: STANDARD PLATE): inactive; negative
mutagenic call (Test System: AMES SALMONELLA TYPHIMURIUM, Strain/Indicator: TA1537, Metabolic Activation: NONE, Method: STANDARD PLATE): inactive; negative
mutagenic call (Test System: AMES SALMONELLA TYPHIMURIUM, Strain/Indicator: TA1978/PKM101, Metabolic Activation: NONE, Method: STANDARD PLATE): active; positive
mutagenic call (Test System: AMES SALMONELLA TYPHIMURIUM, Strain/Indicator: TA1978, Metabolic Activation: NONE, Method: STANDARD PLATE): inactive; negative
mutagenic call (Test System: AMES SALMONELLA TYPHIMURIUM, Strain/Indicator: TA2637, Metabolic Activation: NONE, Method: STANDARD PLATE): active; positive
mutagenic call (Test System: CHINESE HAMSTER OVARY, Strain/Indicator: CHO-AS52 (GPT), Metabolic Activation: NONE): active; positive
mutagenic call (Test System: CHINESE HAMSTER OVARY, Strain/Indicator: CHO-K1-BH4 (HPRT), Metabolic Activation: NONE): active; positive
mutagenic call (Test System: CHINESE HAMSTER V-79, Strain/Indicator: V-79 (HGPRT)/6-THIOGUANINE, Metabolic Activation: NONE): active; positive
mutagenic call (Test System: CHINESE HAMSTER V-79, Strain/Indicator: V-79-MZ (HPRT)/6-THIOGUANINE, Metabolic Activation: NONE): active; positive
mutagenic call (Test System: CHINESE HAMSTER V-79, Strain/Indicator: V-79/6-THIOGUANINE, Metabolic Activation: RAT, LIVER, HEPATOCYTES, Method: SUSPENSION/PLATE): active; positive
mutagenic call (Test System: CHINESE HAMSTER V-79, Strain/Indicator: V-79/6-THIOGUANINE, Metabolic Activation: RAT, LIVER, HOMOGENATE, Method: SUSPENSION/PLATE): inactive; negative
mutagenic call (Test System: CHINESE HAMSTER V-79, Strain/Indicator: V-79/8-AZAGUANINE, Metabolic Activation: NONE, Method: STANDARD PLATE): active; positive
mutagenic call (Test System: CHINESE HAMSTER V-E5, Strain/Indicator: V-E5 (HPRT)/6-THIOGUANINE, Metabolic Activation: NONE): active; positive
mutagenic call (Test System: E. COLI, Strain/Indicator: WP2 (HCR), Metabolic Activation: NONE, Method: STANDARD PLATE): inactive; negative
mutagenic call (Test System: MOUSE LYMPHOMA, Strain/Indicator: L5178Y (TK+/TK-), Metabolic Activation: NONE, Method: SUSPENSION/PLATE): active; positive
